Experimental findings from ChEMBL document CHEMBL1201862, “PubChem BioAssay data set” (2004) are described below.

Some test systems named below: 786-0; BT-549; CCRF-CEM; HCT-15; IGROV-1; K562; LOX IMVI; MOLT-4; Malme-3M; NCI-H23; OVCAR-4; RPMI-8226; RXF 393; SF-539; U-251; UACC-62; CAKI-1; DU-145; HCT-116; SR.
Experiment in all cases: NCI anticancer screen, dose series, 48 h

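48-hour exposure; five concentrations; linearly interpolated endpoints. Abbreviation: GI50, concentration required for 50% inhibition of growth.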 Calls of active or inactive are those of the source. No stated cut-off is given here; in the data, active = GI50 up to about 1.1 µM and inactive = higher. Where a SMILES comes first, the peptide text is derived from it. Some results are limits rather than exact numbers.

Turning to `C[C@]12CC[C@H]3[C@@H](CCC4=CC(=O)CC[C@@]43C)[C@@H]1CC[C@@H]2OC(=O)c1cccc2c(=O)c3ccccc3[nH]c12`, the GI50 is 20.3 µM (inactive) in the assay with 786-0; 58.1 µM (inactive) in the assay on BT-549; 58.1 µM (inactive) in the assay with CCRF-CEM; 37.6 µM with HCT-15; > 100 µM (inactive) in the assay with IGROV-1; 16.3 µM (inactive) in the assay on K562. For the same compound, the GI50 with LOX IMVI was 26.9 µM (inactive); in the assay on MOLT-4, 32.1 µM (inactive); in the assay with Malme-3M, 47.3 µM (inactive); in the assay with NCI-H23, > 100 µM (inactive); in the assay with OVCAR-4 it was 54.7 µM (inactive); with RPMI-8226, 24.3 µM (inactive). Further, the GI50 with RXF 393 was 75.7 µM (inactive); in the assay on SF-539 it was > 100 µM (inactive); in the assay with U-251, 61.2 µM (inactive); with UACC-62, 29.4 µM (inactive).
On to `O=C(O)CCCc1nc2c(n1Cc1ccccc1)C(=O)c1ccccc1C2=O`, for which the GI50 in the assay with 786-0 is > 100 µM (inactive); in the assay with CAKI-1, > 100 µM (inactive); in the assay on CCRF-CEM it was 5.19 µM (inactive); in the assay with DU-145 it was 29.6 µM (inactive); in the assay with HCT-116 it was 28.6 µM (inactive); in the assay on HCT-15 it was 52.4 µM. For the same compound, the GI50 with IGROV-1 is 59.3 µM (inactive); in the assay on K562 it was 42.7 µM (inactive); in the assay on LOX IMVI, 40.4 µM (inactive); with MOLT-4, 44.9 µM (inactive); in the assay on Malme-3M it was 15.7 µM (inactive); in the assay with NCI-H23, 31.6 µM (inactive). Also, the GI50 is 20.2 µM (inactive) with OVCAR-4; 18.7 µM (inactive) in the assay on RPMI-8226; 69.8 µM (inactive) in the assay with SF-539; 44.7 µM (inactive) in the assay with SR; 54.6 µM (inactive) in the assay on U-251; 17.2 µM (inactive) in the assay on UACC-62.
With `CC(=NNC(=S)Nc1cccc(C)c1)c1cccc(C(C)=NNC(=S)Nc2cccc(C)c2)n1`, the GI50 is 8.18 µM (inactive) with 786-0; 11.9 µM (inactive) in the assay with CAKI-1; 4.22 µM (inactive) with CCRF-CEM; > 100 µM (inactive) in the assay with DU-145; 12.2 µM (inactive) in the assay with HCT-116; 15.2 µM in the assay with HCT-15. Besides, the GI50 with IGROV-1 is 10.8 µM (inactive); with K562, 17.1 µM (inactive); in the assay on LOX IMVI, 15.5 µM (inactive); in the assay with MOLT-4, 15 µM (inactive); in the assay on Malme-3M, 14.9 µM (inactive); in the assay on NCI-H23, 27.4 µM (inactive). In addition, the GI50 in the assay with OVCAR-4 is 9.95 µM (inactive); in the assay on RPMI-8226 it was > 100 µM (inactive); in the assay with RXF 393, 16.2 µM (inactive); with SF-539 it was 14.6 µM (inactive); with SR it was 5.25 µM (inactive); in the assay on U-251, 21.5 µM (inactive). Further, in the assay with UACC-62, the GI50 is 15.2 µM (inactive).
Take `NC(=O)C1CCCN1C(=O)C(N)Cc1ccccc1` (stereo not drawn) (H-Phe-Pro-NH2; configuration not given here): the GI50 in the assay on CAKI-1 was > 100 µM (inactive); in the assay with CCRF-CEM it was > 100 µM (inactive); in the assay on DU-145, > 100 µM (inactive); in the assay with HCT-116, > 100 µM (inactive); in the assay with HCT-15 it was > 100 µM; in the assay with IGROV-1, > 100 µM (inactive). For the same compound, the GI50 in the assay on K562, in the assay on LOX IMVI, in the assay with MOLT-4, in the assay on Malme-3M, in the assay on OVCAR-4 and in the assay on RPMI-8226 was > 100 µM (inactive) in each case. Further, the GI50 in the assay with SR, in the assay on U-251 and in the assay on UACC-62 was > 100 µM (inactive) in each case.
Consider `COc1cccc(N(CN2CC=CC2=O)C(C)=O)c1`, for which the GI50 with 786-0 was > 100 µM (inactive); in the assay on CAKI-1 it was > 100 µM (inactive); in the assay on CCRF-CEM, > 100 µM (inactive); in the assay with DU-145, > 100 µM (inactive); in the assay with HCT-116 it was > 100 µM (inactive); in the assay on HCT-15, > 100 µM. The GI50 with IGROV-1, in the assay with K562, with LOX IMVI, in the assay on MOLT-4, in the assay with Malme-3M and in the assay with NCI-H23 was > 100 µM (inactive) in each case. The GI50 in the assay with OVCAR-4, in the assay on RPMI-8226, with RXF 393, in the assay with SF-539, with U-251 and in the assay with UACC-62 was > 100 µM (inactive) throughout.
In the case of `CC1(C)COC(c2cccc(C(=O)c3ccccc3)c2)=N1`, the GI50 is 61.1 µM (inactive) with 786-0; 46.7 µM (inactive) in the assay on CAKI-1; 39.4 µM (inactive) with CCRF-CEM; 75.7 µM (inactive) with DU-145; > 100 µM (inactive) in the assay with HCT-116; 36.2 µM in the assay with HCT-15. Besides, the GI50 in the assay with IGROV-1 is > 100 µM (inactive); with K562, 36.2 µM (inactive); in the assay on LOX IMVI, 38.6 µM (inactive); in the assay on MOLT-4, 24.5 µM (inactive); in the assay on Malme-3M it was 46.3 µM (inactive); in the assay with NCI-H23, 34.1 µM (inactive). Besides, the GI50 is 31 µM (inactive) in the assay with OVCAR-4; 36.8 µM (inactive) in the assay with RPMI-8226; 32.3 µM (inactive) with SR; 70 µM (inactive) with U-251; 41.9 µM (inactive) in the assay with UACC-62.
For `Cc1nc(C(N)=S)sc1C(=O)C/C(=N/N)C(=O)Nc1ccc(Cl)cc1`, the GI50 with 786-0 was 40.6 µM (inactive); in the assay on BT-549, > 100 µM (inactive); with CAKI-1 it was > 100 µM (inactive); with HCT-116, > 100 µM (inactive); in the assay on HCT-15, > 10 µM; with IGROV-1, 16.5 µM (inactive). Besides, the GI50 with K562 is 31.3 µM (inactive); in the assay on LOX IMVI, 82.8 µM (inactive); with MOLT-4, 45.8 µM (inactive); in the assay on Malme-3M, > 100 µM (inactive); with NCI-H23, 57.9 µM (inactive); with OVCAR-4, 78.3 µM (inactive). The GI50 in the assay on RPMI-8226 is 38.2 µM (inactive); with RXF 393, > 100 µM (inactive); in the assay with SF-539, > 100 µM (inactive); with SR, > 100 µM (inactive); in the assay on U-251 it was 99.5 µM (inactive); with UACC-62, > 100 µM (inactive).
`COc1ccccc1NC(=S)N/N=C1\C(=O)Nc2ccccc21`: the GI50 with 786-0 is > 100 µM (inactive); with CAKI-1, > 100 µM (inactive); in the assay on CCRF-CEM, > 100 µM (inactive); with DU-145 it was 0.762 µM (active); with HCT-116, > 100 µM (inactive); in the assay with HCT-15, > 100 µM. Also, the GI50 in the assay on IGROV-1, with K562, in the assay on LOX IMVI, in the assay with MOLT-4, in the assay with Malme-3M and in the assay with NCI-H23 was > 100 µM (inactive) throughout. The GI50 with OVCAR-4, in the assay with RPMI-8226, in the assay with RXF 393, in the assay on SF-539, in the assay on SR and in the assay on U-251 was > 100 µM (inactive) in each case. For the same compound, the GI50 in the assay with UACC-62 was > 100 µM (inactive).
For the compound `COc1cc(S(=O)(=O)Nc2nc(-c3ccc(N4C(=O)C(CC(=O)O)SC4c4cccs4)cc3)cs2)ccc1Cl` (configuration not stated), the GI50 in the assay on 786-0 was 41.8 µM (inactive); with CAKI-1 it was 55.5 µM (inactive); in the assay with DU-145, 43.5 µM (inactive); in the assay on HCT-116, 29.3 µM (inactive); in the assay on HCT-15 it was 19.9 µM; with IGROV-1, 27.1 µM (inactive). Also, the GI50 in the assay with K562 is 39 µM (inactive); with LOX IMVI, 20.3 µM (inactive); in the assay on MOLT-4, 29 µM (inactive); in the assay on Malme-3M it was 22.6 µM (inactive); in the assay on NCI-H23 it was 22.6 µM (inactive); in the assay on OVCAR-4 it was 26.7 µM (inactive). In addition, the GI50 in the assay on RXF 393 was 15.7 µM (inactive); in the assay with SF-539 it was 27.9 µM (inactive); with SR, 44.9 µM (inactive); with U-251, 42.6 µM (inactive); in the assay on UACC-62, 23.4 µM (inactive).
In the case of `OCCN(CCO)c1ccc2c(c1)Cc1ccccc1-2`, the GI50 in the assay with 786-0 was > 100 µM (inactive); in the assay with CAKI-1, 10.3 µM (inactive); in the assay on CCRF-CEM, > 100 µM (inactive); in the assay with DU-145, 17.7 µM (inactive); in the assay on HCT-116, 21 µM (inactive); in the assay on HCT-15 it was 43.4 µM. Besides, the GI50 with K562 is 34 µM (inactive); with LOX IMVI, 29.9 µM (inactive); with MOLT-4, 45.8 µM (inactive); with Malme-3M it was 60.7 µM (inactive); with NCI-H23, 51.4 µM (inactive); in the assay with OVCAR-4, 57.1 µM (inactive). Besides, the GI50 in the assay with RPMI-8226 was 44.8 µM (inactive); with SF-539 it was 42.9 µM (inactive); in the assay with SR, 29.6 µM (inactive); in the assay with U-251, 49.3 µM (inactive); in the assay on UACC-62, 37.3 µM (inactive).
With `COc1cc2c(c(OC)c1OC)C(=O)[C@@H]1[C@H]2N1C(N)=O`, the GI50 with 786-0 is > 100 µM (inactive); in the assay on CAKI-1, > 100 µM (inactive); in the assay on CCRF-CEM, > 100 µM (inactive); with DU-145, 61.4 µM (inactive); in the assay on HCT-116 it was > 100 µM (inactive); with HCT-15, > 100 µM. For the same compound, the GI50 is 94.8 µM (inactive) with IGROV-1; > 100 µM (inactive) with K562; > 100 µM (inactive) in the assay on LOX IMVI; > 100 µM (inactive) in the assay with MOLT-4; > 100 µM (inactive) with Malme-3M; 69.2 µM (inactive) in the assay with NCI-H23. For the same compound, the GI50 in the assay on RPMI-8226 was > 100 µM (inactive); in the assay on RXF 393, 79.8 µM (inactive); in the assay with SF-539, > 100 µM (inactive); in the assay with SR, > 100 µM (inactive); in the assay with U-251 it was 47 µM (inactive); with UACC-62, 22.1 µM (inactive).
